# Where a name gives a salt, the structure may show the parent alone.
# Key:
# Format in all cases: biochemical
# recombinant human VAP-1 = target: T1, recombinant human VAP-1 (Homo sapiens, UniProt Q16853); assay: Activity on recombinant human VAP-1, Amplex Red HRP-coupled hydrogen peroxide assay, benzylamine substrate; conditions: recombinant human VAP-1, benzylamine substrate; read-out: Inhibitory Activity (IC50, nM) human VAP-1
# T1 construct: purchased R&D systems
# T1 sequence (Q16853 1-763): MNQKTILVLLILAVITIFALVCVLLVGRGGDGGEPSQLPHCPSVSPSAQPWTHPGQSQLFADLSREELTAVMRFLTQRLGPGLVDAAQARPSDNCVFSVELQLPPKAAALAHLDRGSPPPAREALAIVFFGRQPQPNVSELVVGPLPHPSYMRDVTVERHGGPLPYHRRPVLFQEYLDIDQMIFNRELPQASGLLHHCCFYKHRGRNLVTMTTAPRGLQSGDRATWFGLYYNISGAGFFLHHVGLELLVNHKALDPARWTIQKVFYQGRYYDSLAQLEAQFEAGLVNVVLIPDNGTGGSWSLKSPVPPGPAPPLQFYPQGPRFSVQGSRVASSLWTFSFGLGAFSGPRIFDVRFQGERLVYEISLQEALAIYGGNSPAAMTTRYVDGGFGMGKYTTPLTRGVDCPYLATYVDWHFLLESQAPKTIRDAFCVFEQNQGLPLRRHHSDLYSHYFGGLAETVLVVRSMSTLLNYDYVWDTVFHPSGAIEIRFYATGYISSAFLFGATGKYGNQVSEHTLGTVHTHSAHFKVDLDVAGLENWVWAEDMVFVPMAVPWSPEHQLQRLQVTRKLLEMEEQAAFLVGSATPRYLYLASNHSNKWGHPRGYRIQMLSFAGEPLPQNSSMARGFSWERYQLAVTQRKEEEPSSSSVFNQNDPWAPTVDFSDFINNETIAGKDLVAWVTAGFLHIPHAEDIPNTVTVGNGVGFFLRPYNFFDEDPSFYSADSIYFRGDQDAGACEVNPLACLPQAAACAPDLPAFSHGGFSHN
# Outline: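 Compounds were preincubated with purified enzyme in 50 mM sodium phosphate pH 7.4 at 37 °C for 30 min, then 200 uM Amplex Red, 1 mM benzylamine and 1 U/mL HRP were added. Resorufin fluorescence (ex 544/em 590 nm) was followed over 1-2 h; IC50 came from 4-parameter fits of signal-rate inhibition.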
# [1] = target: T2, recombinant human MAO-A (monoamine oxidase-A) (Homo sapiens, UniProt P21397); assay: Activity on recombinant human MAO-A, Amplex Red method, 0.5 mM tyramine substrate; conditions: 0.5 mM tyramine substrate, read-out: Inhibitory Activity (IC50, nM) MAO-A
# T2 construct: purchased Sigma-Aldrich
# T2 sequence (P21397 1-527): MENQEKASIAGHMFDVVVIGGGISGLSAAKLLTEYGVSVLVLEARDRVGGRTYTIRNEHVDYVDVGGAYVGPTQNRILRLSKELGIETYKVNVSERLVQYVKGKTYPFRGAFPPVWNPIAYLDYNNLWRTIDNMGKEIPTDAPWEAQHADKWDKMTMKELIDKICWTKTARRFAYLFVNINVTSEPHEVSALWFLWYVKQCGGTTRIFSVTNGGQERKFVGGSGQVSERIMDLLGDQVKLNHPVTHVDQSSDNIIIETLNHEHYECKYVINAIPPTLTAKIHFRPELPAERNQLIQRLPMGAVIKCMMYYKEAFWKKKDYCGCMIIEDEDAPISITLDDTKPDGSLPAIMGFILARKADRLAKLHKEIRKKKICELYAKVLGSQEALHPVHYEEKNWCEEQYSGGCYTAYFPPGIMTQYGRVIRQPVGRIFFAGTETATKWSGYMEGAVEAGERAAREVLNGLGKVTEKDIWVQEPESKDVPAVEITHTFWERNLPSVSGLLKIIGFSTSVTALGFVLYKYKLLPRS
# Outline: (§1)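 8-point, 1:3 dose-response, four-parameter logistic IC50 from reduction in fluorescence rate versus DMSO control. HRP/Amplex Red detection of H2O2 (ex 544, em 590 nm) after 30 min, 37 °C compound–enzyme preincubation in pH 7.4 phosphate buffer. MAO-A substrate: 0.5 mM tyramine; MAO-B: 1 mM benzylamine.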
# [2] = target: T3, recombinant human MAO-B (monoamine oxidase-B) (Homo sapiens, UniProt P27338); assay: Activity on recombinant human MAO-B, Amplex Red method, 1 mM benzylamine substrate; conditions: 1 mM benzylamine substrate, read-out: Inhibitory Activity (IC50, nM) MAO-B
# T3 construct: purchased Sigma-Aldrich
# T3 sequence (P27338 1-520): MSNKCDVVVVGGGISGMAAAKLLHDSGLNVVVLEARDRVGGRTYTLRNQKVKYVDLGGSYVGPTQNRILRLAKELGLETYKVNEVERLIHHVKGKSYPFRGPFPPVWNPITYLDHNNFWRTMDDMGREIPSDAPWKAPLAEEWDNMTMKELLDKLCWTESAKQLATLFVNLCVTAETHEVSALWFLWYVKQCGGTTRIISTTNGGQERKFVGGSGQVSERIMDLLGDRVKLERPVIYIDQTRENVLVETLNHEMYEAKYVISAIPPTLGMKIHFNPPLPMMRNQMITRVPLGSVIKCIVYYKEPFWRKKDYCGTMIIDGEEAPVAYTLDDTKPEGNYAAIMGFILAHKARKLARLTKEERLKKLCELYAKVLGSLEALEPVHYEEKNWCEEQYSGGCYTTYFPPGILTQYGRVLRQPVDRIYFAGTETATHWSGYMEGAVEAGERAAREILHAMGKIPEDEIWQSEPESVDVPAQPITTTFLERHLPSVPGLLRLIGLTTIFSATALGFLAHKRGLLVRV
# Outline: as §1
# [3] = target: T4, recombinant human DAO (diamine oxidase) (Homo sapiens, UniProt P19801); assay: Activity on recombinant human DAO, Amplex Red method, 1 mM putrescine substrate; conditions: recombinant human DAO, 1 mM putrescine substrate; read-out: Inhibitory Activity (IC50, nM) DAO
# T4 construct: purchased R&D systems
# T4 sequence (P19801 20-751): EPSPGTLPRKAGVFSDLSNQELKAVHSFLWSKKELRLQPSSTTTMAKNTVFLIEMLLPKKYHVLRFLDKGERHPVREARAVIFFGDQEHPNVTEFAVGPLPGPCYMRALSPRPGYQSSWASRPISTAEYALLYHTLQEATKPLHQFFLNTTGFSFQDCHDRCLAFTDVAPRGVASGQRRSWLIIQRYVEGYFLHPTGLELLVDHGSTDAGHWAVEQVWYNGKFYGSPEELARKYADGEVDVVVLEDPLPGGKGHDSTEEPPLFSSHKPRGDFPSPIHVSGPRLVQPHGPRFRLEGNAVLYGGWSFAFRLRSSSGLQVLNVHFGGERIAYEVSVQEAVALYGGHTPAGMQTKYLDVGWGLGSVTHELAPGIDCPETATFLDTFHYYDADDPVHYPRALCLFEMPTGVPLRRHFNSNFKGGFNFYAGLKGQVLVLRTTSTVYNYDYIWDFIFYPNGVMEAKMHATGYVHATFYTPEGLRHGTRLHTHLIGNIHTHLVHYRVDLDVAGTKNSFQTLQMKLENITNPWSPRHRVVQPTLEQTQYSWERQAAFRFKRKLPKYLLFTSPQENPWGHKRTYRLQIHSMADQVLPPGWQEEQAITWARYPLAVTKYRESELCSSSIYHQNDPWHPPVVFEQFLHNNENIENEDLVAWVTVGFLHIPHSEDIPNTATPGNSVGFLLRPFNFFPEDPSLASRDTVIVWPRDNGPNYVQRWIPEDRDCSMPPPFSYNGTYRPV
# Outline: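 Inhibition of recombinant human DAO (diamine oxidase, R&D systems) was assessed with the Amplex Red Hydrogen Peroxide Assay Kit. Hydrogen peroxide produced from 1 mM putrescine was detected through an HRP-coupled reaction that converts Amplex Red into fluorescent resorufin, read at 544 nm excitation and 590 nm emission. IC50 values came from four-parameter logistic fits in GraphPad Prism.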
Structure (SMILES),IC50 (recombinant human VAP-1),IC50 [1],IC50 [2],IC50 [3]
NC/C(=C\F)Cn1ncn(-c2ncc(-c3ccc(-c4ncon4)cc3)s2)c1=O [Example 229],0.98 nM,130 nM,12 nM,< 100 nM
"NC/C(=C/F)Cn1ncn(-c2ncc(-c3ccc4nonc4c3)s2)c1=O [Example 234, 2-[(2Z)-2-(aminomethyl)-3-fluoroprop-2-en-1-yl]-4-[5-(2,1,3-benzooxadiazol-5-yl)-1,3-thiazol-2-yl]-2,4-dihydro-3H-1,2,4-triazol-3-one hydrochloride]",0.98 nM,< 100 nM,10.1 nM,< 100 nM
"NC/C(=C\F)Cn1ncn(-c2cccc(/C=C/c3ccsc3)n2)c1=O [Example 237, 2-[(2E)-2-(aminomethyl)-3-fluoroprop-2-en-1-yl]-4-{6-[(E)-2-(thiophen-3-yl)ethenyl]pyridin-2-yl}-2,4-dihydro-3H-1,2,4-triazol-3-one]",2.4 nM,20000 nM,< 100 nM,170 nM
"CN(C)c1ccc(/C=C/c2cccc(-n3cnn(C/C(=C/F)CN)c3=O)n2)cc1 [Example 239, 2-[(E)-2-(aminomethyl)-3-fluoro-allyl]-4-[6-[(E)-2-[4-(dimethylamino)phenyl]vinyl]-2-pyridyl]-1,2,4-triazol-3-one hydrochloride]",1.6 nM,> 100000 nM,230 nM,1600 nM
"CN1CNc2cc(/C=C/c3cccc(-n4cnn(C/C(=C/F)CN)c4=O)n3)cnc21 [Example 240, 2-[(E)-2-(aminomethyl)-3-fluoro-allyl]-4-[6-[(E)-2-(3-methyl-1,2-dihydroimidazo[4,5-b]pyridin-6-yl)vinyl]-2-pyridyl]-1,2,4-triazol-3-one hydrochloride]",1 nM,> 100000 nM,> 10000 nM,4 nM

# The next compounds have a lower IC50 (recombinant human VAP-1) than those just listed; values first:
IC50 (recombinant human VAP-1),IC50 [1],IC50 [2],IC50 [3],Structure (SMILES)
0.38 nM,> 100000 nM,9.2 nM,< 100 nM,"NC/C(=C\F)Cn1ncn(-c2ncc(-c3cccc(-c4nnc[nH]4)c3)s2)c1=O [Example 228, 2-[(2E)-2-(aminomethyl)-3-fluoroprop-2-en-1-yl]-4-{5-[3-(4H-1,2,4-triazol-3-yl)phenyl]-1,3-thiazol-2-yl}-2,4-dihydro-3H-1,2,4-triazol-3-one]"
0.78 nM,24 nM,< 100 nM,< 100 nM,"NC/C(=C/F)Cn1ncn(-c2ncc(-c3ccc4c(c3)OCO4)s2)c1=O [Example 232, 2-[(2Z)-2-(aminomethyl)-3-fluoroprop-2-en-1-yl]-4-[5-(1,3-benzodioxol-5-yl)-1,3-thiazol-2-yl]-2,4-dihydro-3H-1,2,4-triazol-3-one hydrochloride]"
0.43 nM,> 100000 nM,2580 nM,< 100 nM,"CC(=O)Nc1nc(Cc2ccc(-n3cnn(C/C(=C/F)CN)c3=O)cc2)cs1 [Example 235, hydrochloride]"
0.8 nM,> 10000 nM,16 nM,6.4 nM,"NC/C(=C\F)Cn1ncn(-c2cc(/C=C/c3ccccc3)ccn2)c1=O [Example 236, 2-[(2E)-2-(aminomethyl)-3-fluoroprop-2-en-1-yl]-4-{4-[(E)-2-phenylethenyl]pyridin-2-yl}-2,4-dihydro-3H-1,2,4-triazol-3-one hydrochloride]"
0.9 nM,34000 nM,1600 nM,15 nM,"NC/C(=C\F)Cn1ncn(-c2cccc(/C=C/c3ccc(C(F)(F)F)cc3)n2)c1=O [Example 238, 2-[(2E)-2-(aminomethyl)-3-fluoroprop-2-en-1-yl]-4-(6-{(E)-2-[4-(trifluoromethyl)phenyl]ethenyl}pyridin-2-yl)-2,4-dihydro-3H-1,2,4-triazol-3-one Hydrochloride]"
0.5 nM,> 100000 nM,> 10000 nM,1 nM,"NC/C(=C\F)Cn1ncn(-c2cccc(/C=C/c3cnc4c(c3)NC(=O)CO4)n2)c1=O [Example 241, 7-[(E)-2-[6-[1-[(E)-2-(aminomethyl)-3-fluoro-allyl]-5-oxo-1,2,4-triazol-4-yl]-2-pyridyl]vinyl]-1H-pyrido[2,3-b][1,4]oxazin-2-one hydrochloride]"

# Source: patent US11492335B2, “Aryl or heteroaryl triazolone derivatives or salts thereof, or pharmaceutical compositions comprising the same” (YUHAN CORPORATION, priority 2018, dated 2022)
